Experimental data: patent US4160829A, “Antibacterial 1,2,4-oxadiazolylacetamido cephalosporins” (Gist-Brocades N.V., priority 1972, dated 1979)
Converted amounts (≈) assume the structure as drawn. Like-named read-outs stand apart in the source and are kept apart here.

What was measured:
[1] = test system: Past.multo. A 723; assay: agar serial dilution test; format: cell-based, Pasteurella multocida; details: Pasteurella multocida, 24 h, read-out: minimal inhibitory concentration (MIC)
[2] = test system: Staph.aureus A 355; assay: agar serial dilution test; details: Staphylococcus aureus, A355, 24 h, read-out: minimal inhibitory concentration (MIC)
[3] = test system: Pseud.aerug. H 10; assay: agar serial dilution test; format: cell-based; details: 24 h, read-out: minimal inhibitory concentration (MIC)
[4] = test system: Salm.dubl. P 43; assay: agar serial dilution test; format: cell-based, Salmonella dublin; details: Salmonella enterica, 24 h, read-out: minimal inhibitory concentration (MIC)
[5] = test system: Esch.coli U 20; assay: agar serial dilution test; format: cell-based, Escherichia coli; details: Escherichia coli, U20, 24 h, read-out: minimal inhibitory concentration (MIC), agar serial dilution, 24 hours, 37° C.
[6] = test system: Staph.aureus A 321; assay: agar serial dilution test; format: cell-based, Staphylococcus aureus; details: Staphylococcus aureus, A321, 24 h, read-out: minimal inhibitory concentration (MIC)
[7] = test system: Pseud.aerug. Wyeth A 1058; assay: agar serial dilution test; format: cell-based; details: 24 h, read-out: minimal inhibitory concentration (MIC)
[8] = test system: Prot.mirab. L 93; assay: agar serial dilution test; format: cell-based, Proteus mirabilis; details: Proteus mirabilis, 24 h, read-out: minimal inhibitory concentration (MIC), agar serial dilution, 24 hours, 37° C.
[9] = test system: Strep. faec. L 80; assay: agar serial dilution test; format: cell-based, Streptococcus faecalis; details: Enterococcus faecalis, 24 h, read-out: minimal inhibitory concentration (MIC)
[10] = test system: Prot.mirab. H 3; assay: agar serial dilution test; format: cell-based, Proteus mirabilis; details: Proteus mirabilis, 24 h, read-out: minimal inhibitory concentration (MIC), agar serial dilution, 24 hours, 37° C.
[11] = test system: Bac.Subt.ATCC 6633; assay: agar serial dilution test; format: cell-based, Bacillus subtilis; details: Bacillus subtilis, ATCC6633, 24 h, read-out: minimal inhibitory concentration (MIC)
[12] = test system: Dipl.pneum. L 54; assay: agar serial dilution test; format: cell-based, Diplococcus pneumoniae; details: Streptococcus pneumoniae, 24 h, read-out: minimal inhibitory concentration (MIC)
[13] = test system: Bruc.melit. A 488; assay: microbe, parasite or virus in culture; format: cell-based; details: Brucella melitensis, 24 h, read-out: minimal inhibitory concentration (MIC)
[14] = test system: Shig.equir. T 3; assay: agar serial dilution test; format: cell-based; details: 24 h, 37° C., read-out: minimal inhibitory concentration (MIC)
[15] = test system: Haem.infl. A 1030; assay: micro serial dilution test; format: cell-based; details: 18 h, read-out: minimal inhibitory concentration (MIC)
[16] = test system: Strep.haem. A 266; assay: agar serial dilution test; format: cell-based, Streptococcus haemolyticus; details: Streptococcus, 24 h, read-out: minimal inhibitory concentration (MIC)
[17] = test system: Prot.rettg. A 821; assay: agar serial dilution test; format: cell-based, Proteus rettgeri; details: Providencia rettgeri, 24 h, read-out: minimal inhibitory concentration (MIC)
[18] = test system: Staph.aureus A 2000; assay: agar serial dilution test; format: cell-based, Staphylococcus aureus; details: Staphylococcus aureus, A2000, 24 h, read-out: minimal inhibitory concentration (MIC)
[19] = test system: Prot.morg. 2241; assay: agar serial dilution test; format: cell-based; details: 24 h, read-out: minimal inhibitory concentration (MIC)
[20] = test system: Salm.typh. R 127; assay: micro serial dilution test; format: cell-based; details: micro serial dilution (in brackets), about 18 hours, 30° C. or 37° C.; read-out: minimal inhibitory concentration (MIC)
Source text: (§1) Two drops of a stock solution of the test compound (antibiotic) in a known concentration were brought into the first hole of a test plate with 9 numbered holes with a sterile Pasteur pipette. After rinsing this pipette three times with a physiological NaCl-solution, two drops of a stock solution of the test organism in a culture medium were brought in all the holes except for hole 8. In the first hole, the solution of the tested compound had been half diluted, then by stirring the liquid in the first hole and adding two drops of this mixture to the second hole and so on until hole 8, dilutions of the test compound solution were obtained in geometrical progression. The hole 9 contained no antibiotic and served for checking the growth of the testogranism in a blank medium. The test plate was incubated at 30° C. or 37° C. for about 18 hours.

[21] = test system: Pseud.aerug. 2396; assay: agar serial dilution test; format: cell-based; details: 24 h, read-out: minimal inhibitory concentration (MIC)
[22] = test system: Kleb.pneum. A 809; assay: agar serial dilution test; format: cell-based, Klebsiella pneumoniae; details: Klebsiella pneumoniae, 24 h, read-out: minimal inhibitory concentration (MIC)
[23] = test system: Past.multo. A 723; assay: micro serial dilution test; format: cell-based; details: Pasteurella multocida, read-out: minimal inhibitory concentration (MIC)
[24] = test system: Esch.coli U 20; assay: micro serial dilution test; format: cell-based; details: Escherichia coli, read-out: minimal inhibitory concentration (MIC)
[25] = test system: Prot.mirab. L 93; assay: micro serial dilution test; format: cell-based; details: Proteus mirabilis, read-out: minimal inhibitory concentration (MIC)
[26] = test system: Prot.morg. 2241; assay: micro serial dilution test; format: cell-based; details: read-out: minimal inhibitory concentration (MIC)
[27] = test system: Prot.mirab. H 3; assay: micro serial dilution test; format: cell-based; details: Proteus mirabilis, read-out: minimal inhibitory concentration (MIC)
[28] = test system: Kleb.pneum. A 809; assay: micro serial dilution test; format: cell-based; details: Klebsiella pneumoniae, read-out: minimal inhibitory concentration (MIC)
[29] = test system: Dipl.pneum. L 54; assay: micro serial dilution test; format: cell-based, Diplococcus pneumoniae; details: Streptococcus pneumoniae, read-out: minimal inhibitory concentration (MIC)
[30] = test system: Salm.dubl. P 43; assay: micro serial dilution test; format: cell-based, Salmonella dublin; details: Salmonella enterica, read-out: minimal inhibitory concentration (MIC)
[31] = test system: Strep. faec. L 80; assay: micro serial dilution test; format: cell-based, Streptococcus faecalis; details: Enterococcus faecalis, read-out: minimal inhibitory concentration (MIC)
[32] = test system: Staph.aureus A 355; assay: micro serial dilution test; format: cell-based, Staphylococcus aureus; details: Staphylococcus aureus, read-out: minimal inhibitory concentration (MIC)
[33] = test system: Staph.aureus A 321; assay: micro serial dilution test; format: cell-based; details: Staphylococcus aureus, read-out: minimal inhibitory concentration (MIC)
[34] = test system: Pseud.aerug. 2396; assay: micro serial dilution test; format: cell-based; details: read-out: minimal inhibitory concentration (MIC)
[35] = test system: Pseud.aerug. Wyeth A 1058; assay: micro serial dilution test; format: cell-based; details: read-out: minimal inhibitory concentration (MIC)
[36] = test system: Bac.Subt.ATCC 6633; assay: micro serial dilution test; format: cell-based; details: Bacillus subtilis, read-out: minimal inhibitory concentration (MIC)
[37] = test system: Strep.haem. A 266; assay: micro serial dilution test; format: cell-based, Streptococcus haemolyticus; details: Streptococcus, read-out: minimal inhibitory concentration (MIC)
[38] = test system: Pseud.aerug. H 10; assay: micro serial dilution test; format: cell-based; details: read-out: minimal inhibitory concentration (MIC)
[39] = test system: Shig.equir. T 3; assay: micro serial dilution test; format: cell-based; details: micro serial dilution (in brackets), about 18 hours, 30° C. or 37° C.; read-out: minimal inhibitory concentration (MIC)
Source text: as §1

[40] = test system: Prot.rettg. A 821; assay: micro serial dilution test; format: cell-based, Proteus rettgeri; details: Providencia rettgeri, read-out: minimal inhibitory concentration (MIC)
[41] = test system: Bruc.melit. A 488; assay: microbe, parasite or virus in culture; format: cell-based; details: Brucella melitensis, 18 h, read-out: minimal inhibitory concentration (MIC)
[42] = micro serial dilution (in brackets), about 18 hours, 30° C. or 37° C.

## CC1=C(C(=O)O)N2C(=O)[C@@H](NC(=O)[C@H](N)c3ccccc3)[C@H]2SC1 [Cefalexin, reference compound]
[1]
  MIC: 3 µg/mL (≈ 8.64 µM)
[2]
  MIC: 12.5 µg/mL (≈ 36 µM)
[3]
  MIC: > 100 µg/mL
[4]
  MIC: 6 µg/mL (≈ 17.3 µM)
[5]
  MIC: 12.5 µg/mL (≈ 36 µM)
[6]
  MIC: 1.5 µg/mL (≈ 4.32 µM)
[7]
  MIC: > 100 µg/mL
[8]
  MIC: 12.5 µg/mL (≈ 36 µM)
[9]
  MIC: 100 µg/mL (≈ 288 µM)
[10]
  MIC: 25 µg/mL (≈ 72 µM)
[11]
  MIC: 0.5 µg/mL (≈ 1.44 µM)
[12]
  MIC: 3 µg/mL (≈ 8.64 µM)
[13]
  MIC: 6 µg/mL (≈ 17.3 µM)
[14]
  MIC: 1.5 µg/mL (≈ 4.32 µM)
[15]
  MIC: 125 µg/mL (≈ 360 µM)
[16]
  MIC: 0.25 µg/mL (≈ 0.72 µM)
[17]
  MIC: 12.5 µg/mL (≈ 36 µM)
[18]
  MIC: 12.5 µg/mL (≈ 36 µM)
[19]
  MIC: > 100 µg/mL
[20]
  MIC: 6 µg/mL (≈ 17.3 µM)
[21]
  MIC: > 100 µg/mL
[22]
  MIC: 3 µg/mL (≈ 8.64 µM)

## CC1(C)S[C@@H]2[C@H](NC(=O)Cc3ccccc3)C(=O)N2[C@H]1C(=O)O [Penicillin G]
[23]; [42]
  MIC: 0.2 µg/mL (≈ 0.598 µM)
[24]; U20, micro serial dilution (in brackets), about 18 hours, 30° C. or 37° C.
  MIC: 40 µg/mL (≈ 120 µM)
[25]; [42]
  MIC: 0.5 µg/mL (≈ 1.5 µM)
[26]; [42]
  MIC: > 100 µg/mL
[27]; [42]
  MIC: 7.5 µg/mL (≈ 22.4 µM)
[28]; [42]
  MIC: 100 µg/mL (≈ 299 µM)
[29]; [42]
  MIC: 0.13 µg/mL (≈ 0.389 µM)
[30]; [42]
  MIC: 5 µg/mL (≈ 15 µM)
[31]; [42]
  MIC: 4 µg/mL (≈ 12 µM)
[32]; A355, micro serial dilution (in brackets), about 18 hours, 30° C. or 37° C., penicillinase-producing strain
  MIC: 10 µg/mL (≈ 29.9 µM)
[33]; A321, micro serial dilution (in brackets), about 18 hours, 30° C. or 37° C.
  MIC: 0.03 µg/mL (≈ 0.0897 µM)
[15]; [42]
  MIC: 0.5 µg/mL (≈ 1.5 µM)
[34]; [42]
  MIC: > 100 µg/mL
[35]; [42]
  MIC: 100 µg/mL (≈ 299 µM)
[36]; ATCC6633, micro serial dilution (in brackets), about 18 hours, 30° C. or 37° C.
  MIC: 0.006 µg/mL (≈ 0.0179 µM)
[37]; [42]
  MIC: 0.013 µg/mL (≈ 0.0389 µM)
[38]; [42]
  MIC: > 100 µg/mL
[39]
  MIC: 0.25 µg/mL (≈ 0.748 µM)
[40]; [42]
  MIC: 25 µg/mL (≈ 74.8 µM)
[41]
  MIC: 0.25 µg/mL (≈ 0.748 µM)

## CC1(C)S[C@@H]2[C@H](NC(=O)COc3ccccc3)C(=O)N2[C@H]1C(=O)O [Penicillin V]
[23]; 18 h
  MIC: 0.75 µg/mL (≈ 2.14 µM)
[24]; U20, 18 h
  MIC: 100 µg/mL (≈ 285 µM)
[25]; 18 h
  MIC: 10 µg/mL (≈ 28.5 µM)
[26]; 18 h
  MIC: > 100 µg/mL
[27]; 18 h
  MIC: 100 µg/mL (≈ 285 µM)
[28]; 18 h
  MIC: 100 µg/mL (≈ 285 µM)
[29]; 18 h
  MIC: 1 µg/mL (≈ 2.85 µM)
[30]; 18 h
  MIC: > 100 µg/mL
[31]; 18 h
  MIC: 5 µg/mL (≈ 14.3 µM)
[32]; A355, 18 h
  MIC: 25 µg/mL (≈ 71.3 µM)
[33]; A321, 18 h
  MIC: 0.045 µg/mL (≈ 0.128 µM)
[15]
  MIC: 1 µg/mL (≈ 2.85 µM)
[34]; 18 h
  MIC: 100 µg/mL (≈ 285 µM)
[35]; 18 h
  MIC: > 100 µg/mL
[36]; ATCC6633, 18 h
  MIC: 0.002 µg/mL (≈ 0.00571 µM)
[37]; 18 h
  MIC: 0.2 µg/mL (≈ 0.571 µM)
[38]; 18 h
  MIC: > 100 µg/mL
[39]
  MIC: 5 µg/mL (≈ 14.3 µM)
[40]; 18 h
  MIC: 100 µg/mL (≈ 285 µM)
[41]
  MIC: 1 µg/mL (≈ 2.85 µM)
